In patent US4127576A, “Nortropine-carbazate derivatives” (Egyt Gyogyszervegyeszeti Gyar, priority 1976, dated 1978):
Counter-ions that a name gives are not always drawn. Like-named read-outs stand apart in the source and are kept apart here.

Experiments:
[1] = toxicity test on rats, observation for 7 days; settings: rat, in vivo, po
Experimental: (§1) The toxicities and narcosis potentiating effects of the novel compounds having the general formula (I) were studied on rats weighing 120 to 150 g. In the toxicity tests the animals were kept under observation for 7 days. The narcosis potentiating effect was studied on animals treated with an intravenous dosage of 50 mg/kg of hexabarbital (5-/1-cyclohexenyl/-1',5-dimethylbarbituric acid), and the prolongation of sleeping period was recorded. A 150% prolongated of sleeping period in relation to the controls was regarded as positive response. The number of animals with positive responses was related to the total number of animals treated.

rats [2] = test: narcosis potentiating effect (prolongation of hexabarbital sleeping period); assay type: in vivo; settings: Rattus norvegicus, po, read-out: ED50 (narcosis potentiating effect)
Experimental: as §1

mice [3] = test: effect on motility of mice (method of Borsy et al.); assay type: in vivo, mouse; settings: oral, 20 to 80 mg/kg
Experimental: (§2) The effect of 8-phenoxycarbonyl-3-hydrazinocarbonyl-oxy-nortropane exerted on the motilities of mice was tested according to the method of Borsy et al. (Arch. Int. Pharmacodyn. 124, 1- 2/1960/). The compound was administered orally in dosages of 20 to 80 mg/kg.

mice [4] = test: hypermotility provoked with amphetamine in mice (light interruption); assay type: in vivo, mouse
Experimental: as §2
The above test method was applied also to study how 8-phenoxycarbonyl-3-hydrazinocarbonyloxy-nortropane does influence the hypermotility provoked with amphetamine (2-amino-1-phenyl-propane). Amphetamine was administered subcutaneously to mice in dosages of 7.5 mg/kg.

rats [5] = test: hypermotility provoked with amphetamine in rats (method of Janssen); assay type: in vivo, rat
Experimental: The effect of 8-phenoxycarbonyl-3-hydrazinocarbonyloxy-nortropane exerted on the hypermotility provoked with amphetamine on rats was examined by the method of Janssen (Psychopharmacologia 1, 389- 392/1960/). The stimulation of central nervous system was provoked with subcutaneous dosages of 7.5 mg/kg of amphetamine. The tests were performed on groups each consisting of 10 rats.

[6] = 0.9% saline 20 ml/kg s.c. + compound 40 mg/kg p.o., no amphetamine
[7] = compound 40 mg/kg p.o. + amphetamine 7.5 mg/kg s.c.
[8] = 0.9% saline 20 ml/kg p.o. + amphetamine 7.5 mg/kg s.c.

## NNC(=O)O[C@H]1C[C@H]2CC[C@@H](C1)N2C(=O)Oc1ccccc1 [Example 3, 8-Phenoxycarbonyl-3α-hydrazinocarbonyloxy-nortropane]
[1]
  LD50 at 168 h: 5000 mg/kg
Rats [2]
  ED50: 3 mg/kg
Mice [3]
  influence on motility: did not influence the motilities
Mice [4]; amphetamine 7.5 mg/kg s.c. + compound 40 mg/kg p.o.
  Light interruption (average): 270
Mice [4]; amphetamine 7.5 mg/kg s.c. + compound 80 mg/kg p.o.
  Light interruption (average): 175
Mice [4]; mice, both dosages examined (40 and 80 mg/kg p.o.)
  inhibition of locomotor stimulating effect of amphetamine: completely inhibited
Rats [5]; [6]
  Rearing (average): 11.8
  Triangle walked in (average): 16.1
  Washing (average): 3.3
Rats [5]; [7]
  Rearing (average): 21.5
  Triangle walked in (average): 14.5
  Washing (average): 0.6

## O=C(CCCN1CCC(O)(c2ccc(Cl)cc2)CC1)c1ccc(F)cc1 [Haloperidol, 4-(4-chlorophenyl/-4-hydroxy-piperidyl)-4'-fluoro-butyrophenone, reference compound]
[1]
  LD50 at 168 h: 450 mg/kg
Rats [2]
  ED50: 2.8 mg/kg

## CC(=O)N(NC(=O)OC1CC2CCC(C1)N2C(=O)Oc1ccccc1)C(C)=O (stereo not drawn) [Example 14, 8-Phenoxycarbonyl-3α-(2',2'-diacetyl-hydrazinocarbonyloxy)-nortropane]
[1]
  LD50 at 168 h: > 1200 mg/kg
Rats [2]
  ED50: 1 mg/kg

## CCOC(=O)N1[C@@H]2CC[C@H]1C[C@@H](OC(=O)NN)C2 [Example 1, 8-Ethoxycarbonyl-3α-hydrazinocarbonyloxy-nortropane hydrochloride]
[1]
  LD50 at 168 h: > 2000 mg/kg
Rats [2]
  ED50: 0.54 mg/kg

## CC(N)Cc1ccccc1 (stereo not drawn) [Amphetamine, 2-amino-1-phenyl-propane, reference compound]
Mice [4]; amphetamine 7.5 mg/kg s.c. + 5% carboxymethylcellulose solution
  Light interruption (average): 583
Rats [5]; [8]
  Rearing (average): 28.6
  Triangle walked in (average): 28.5
  Washing (average): 2.7

## CN(C)CCCN1c2ccccc2Sc2ccc(Cl)cc21 [Chloropromazine, 2-chloro-10-/3-dimethylaminopropyl/-phenothiazine, reference compound]
[1]
  LD50 at 168 h: 210 mg/kg
Rats [2]; rats, hexabarbital 50 mg/kg i.v., 150% prolongation of sleeping period = positive response
  ED50: 4.7 mg/kg
